Measurements from patent publication US11207320B2, “Compositions and methods for cancer expressing PDE3A or SLFN12” (The Broad Institute, Inc., priority 2015, dated 2021).
Like-named read-outs stand apart in the source and are kept apart here.

How the values were obtained:
[1] = system: A549 cells; test: Compound sensitivity testing in cell lines (48 h viability); assay type: cell-based; conditions: Homo sapiens; A549, 48 hours
Procedure: (§1) 1500 NCI-H1734 or 1000 A549 cells were plated in a 384-well plate in 40 μl of RPMI supplemented with 10% Fetal Bovine Serum and 1% Pen/Strep. 24 hours after plating, a compound-library of 1924 small molecules was added at a concentration of 10 μM. Staurosporine was used a positive control for cytotoxicity at a concentration of 10 μM, and DMSO was used a negative control at a concentration of 1%. All compounds were incubated for 48 hours with indicated small molecules. After 48 hours, 384-well plates were removed from the incubator and allowed to cool to room temperature for 20 minutes. Cell viability was assessed by adding 40 μl of a 25% CELLTITERGLO® (Promega) in PBS with a THERMO COMBI™ or multichannel-pipette and incubated for 10 minutes. The luminescence signal was read using a Perkin-Elmer EnVision. Viability percentage was calculated by normalizing to DMSO controls.
(§2) 1000 HeLa (DMEM), 1000 A549 (RPMI), 500 MCF-7 (DMEM), 4000 PC3 (F12-K), 1000 NCI-H2122 (RPMI) or 1500 NCI-H1563 (RPMI) cells were plated in a 384-well plate in 40 μl of corresponding growth media supplemented with 10% Fetal Bovine Serum. 24 hours after plating, indicated compounds were added at indicated concentrations and incubated for 48 hours. Cell viability was assessed as described in Compound library screening in NCI-H1734 and A549 cell lines.

[2] = system: MCF7 cells; test: as above; assay type: cell-based; conditions: Homo sapiens; MCF7, 48 hours
Procedure: as §1, §2

[3] = target: T1, PDE10A1 (Homo sapiens, UniProt Q9Y233); test: Phosphodiesterase inhibition reactions (Caliper panel); assay type: biochemical; conditions: PDE10A1, 100 nM
T1 construct: Caliper
Procedure: (§3) DNMDP concentration was 100 nM.

[4] = target: T2, PDE10A2 (Homo sapiens, UniProt Q9Y233); test: as above; assay type: biochemical; conditions: PDE10A2, 100 nM
T2 construct: Caliper
Procedure: as §3

[5] = target: T3, PDE11A (Homo sapiens, UniProt Q9HCR9); test: as above; assay type: biochemical; conditions: 100 nM
T3 construct: Caliper
Procedure: as §3

[6] = system: PDE1A1; test: as above; assay type: biochemical; conditions: PDE1A1, 100 nM
Procedure: as §3

[7] = target: T4, PDE1B (Homo sapiens, UniProt Q01064); test: as above; assay type: biochemical; conditions: 100 nM
T4 construct: Caliper
Procedure: as §3

[8] = target: T5, PDE1C (Homo sapiens, UniProt Q14123); test: as above; assay type: biochemical; conditions: 100 nM
T5 construct: Caliper
Procedure: as §3

[9] = target: T6, PDE2A (Homo sapiens, UniProt O00408); test: as above; assay type: biochemical; conditions: 100 nM
T6 construct: Caliper
Procedure: as §3

[10] = target: PDE3A (Homo sapiens, UniProt Q14432); test: as above; assay type: biochemical; conditions: 100 nM
Procedure: as §3

[11] = target: T7, PDE3B (Homo sapiens, UniProt Q13370); test: as above; assay type: biochemical; conditions: 100 nM
T7 construct: Caliper
Procedure: as §3

[12] = target: T8, PDE4A1A (Homo sapiens, UniProt P27815); test: as above; assay type: biochemical; conditions: 100 nM
T8 construct: Caliper
Procedure: as §3

[13] = target: T9, PDE4B1 (Homo sapiens, UniProt Q07343); test: as above; assay type: biochemical; conditions: PDE4B1, 100 nM
T9 construct: Caliper
Procedure: as §3

[14] = target: T10, PDE4C1 (Homo sapiens, UniProt Q08493); test: as above; assay type: biochemical; conditions: PDE4C1, 100 nM
T10 construct: Caliper
Procedure: as §3

[15] = target: T11, PDE4D3 (Homo sapiens, UniProt Q08499); test: as above; assay type: biochemical; conditions: PDE4D3, 100 nM
T11 construct: Caliper
Procedure: as §3

[16] = target: T12, PDE4D7 (Homo sapiens, UniProt Q08499); test: as above; assay type: biochemical; conditions: PDE4D7, 100 nM
T12 construct: Caliper
Procedure: as §3

[17] = target: T13, PDE5A1 (Homo sapiens, UniProt O76074); test: as above; assay type: biochemical; conditions: PDE5A1, 100 nM
T13 construct: Caliper
Procedure: as §3

[18] = target: T14, PDE7A (Homo sapiens, UniProt Q13946); test: as above; assay type: biochemical; conditions: 100 nM
T14 construct: Caliper
Procedure: as §3

[19] = target: T15, PDE7B (Homo sapiens, UniProt Q9NP56); test: as above; assay type: biochemical; conditions: 100 nM
T15 construct: Caliper
Procedure: as §3

[20] = target: T16, PDE8A1 (Homo sapiens, UniProt O60658); test: as above; assay type: biochemical; conditions: PDE8A1, 100 nM
T16 construct: Caliper
Procedure: as §3

[21] = target: T17, PDE9A2 (Homo sapiens, UniProt O76083); test: as above; assay type: biochemical; conditions: PDE9A2, 100 nM
T17 construct: Caliper
Procedure: as §3

[22] = replicate #1, read-out: % inh. #1
[23] = replicate #2, read-out: % inh. #2

T9 sequence (Q07343 whole entry, species assumed): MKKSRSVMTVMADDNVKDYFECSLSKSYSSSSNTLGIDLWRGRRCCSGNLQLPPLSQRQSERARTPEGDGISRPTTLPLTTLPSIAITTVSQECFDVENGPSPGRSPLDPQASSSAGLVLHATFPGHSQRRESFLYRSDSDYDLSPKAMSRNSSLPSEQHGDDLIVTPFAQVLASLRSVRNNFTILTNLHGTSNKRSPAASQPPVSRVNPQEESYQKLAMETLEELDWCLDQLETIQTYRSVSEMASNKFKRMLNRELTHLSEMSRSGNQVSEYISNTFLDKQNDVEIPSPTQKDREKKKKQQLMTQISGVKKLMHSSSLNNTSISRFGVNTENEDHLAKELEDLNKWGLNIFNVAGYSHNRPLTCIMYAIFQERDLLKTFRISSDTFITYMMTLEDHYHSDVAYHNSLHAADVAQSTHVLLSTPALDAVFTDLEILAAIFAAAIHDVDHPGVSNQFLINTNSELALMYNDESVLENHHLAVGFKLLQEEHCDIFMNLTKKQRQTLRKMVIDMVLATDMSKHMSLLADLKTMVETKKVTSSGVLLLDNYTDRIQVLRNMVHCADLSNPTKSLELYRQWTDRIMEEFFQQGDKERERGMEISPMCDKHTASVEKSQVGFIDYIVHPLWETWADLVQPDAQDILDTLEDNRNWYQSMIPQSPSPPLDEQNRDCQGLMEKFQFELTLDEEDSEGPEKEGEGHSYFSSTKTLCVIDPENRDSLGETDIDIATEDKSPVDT
T15 sequence (Q9NP56 whole entry, species assumed): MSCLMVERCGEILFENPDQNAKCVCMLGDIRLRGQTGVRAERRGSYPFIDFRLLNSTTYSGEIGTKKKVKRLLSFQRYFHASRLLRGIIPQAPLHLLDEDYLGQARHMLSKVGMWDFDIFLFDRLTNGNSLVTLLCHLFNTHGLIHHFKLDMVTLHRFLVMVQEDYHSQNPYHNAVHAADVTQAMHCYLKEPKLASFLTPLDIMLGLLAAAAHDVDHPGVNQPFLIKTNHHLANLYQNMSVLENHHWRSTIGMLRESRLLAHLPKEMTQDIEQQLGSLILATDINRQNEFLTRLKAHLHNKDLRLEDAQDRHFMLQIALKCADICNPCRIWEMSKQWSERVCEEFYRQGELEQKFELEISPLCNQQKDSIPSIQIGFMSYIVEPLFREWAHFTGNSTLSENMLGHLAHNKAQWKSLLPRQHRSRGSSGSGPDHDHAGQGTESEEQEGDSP
T5 sequence (Q14123 whole entry, species assumed): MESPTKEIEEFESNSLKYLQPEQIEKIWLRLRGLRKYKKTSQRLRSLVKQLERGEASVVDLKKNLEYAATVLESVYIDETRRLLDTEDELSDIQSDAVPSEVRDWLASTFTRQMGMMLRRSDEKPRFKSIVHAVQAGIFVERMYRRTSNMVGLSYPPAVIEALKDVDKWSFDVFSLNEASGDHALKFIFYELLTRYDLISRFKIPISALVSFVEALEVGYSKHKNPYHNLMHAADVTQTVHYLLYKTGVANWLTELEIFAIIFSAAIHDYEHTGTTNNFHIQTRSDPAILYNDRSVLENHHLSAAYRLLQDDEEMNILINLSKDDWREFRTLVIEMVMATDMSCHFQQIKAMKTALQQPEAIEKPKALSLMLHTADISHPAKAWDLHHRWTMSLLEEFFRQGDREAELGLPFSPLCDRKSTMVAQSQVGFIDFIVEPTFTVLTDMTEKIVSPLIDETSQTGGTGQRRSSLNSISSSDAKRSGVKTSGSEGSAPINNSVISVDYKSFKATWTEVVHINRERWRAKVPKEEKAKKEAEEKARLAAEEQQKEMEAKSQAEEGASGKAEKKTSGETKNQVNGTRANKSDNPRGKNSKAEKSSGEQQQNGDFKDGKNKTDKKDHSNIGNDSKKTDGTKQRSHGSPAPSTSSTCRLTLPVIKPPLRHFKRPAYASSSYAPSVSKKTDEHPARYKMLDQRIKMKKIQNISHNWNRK
T7 sequence (Q13370 whole entry, species assumed): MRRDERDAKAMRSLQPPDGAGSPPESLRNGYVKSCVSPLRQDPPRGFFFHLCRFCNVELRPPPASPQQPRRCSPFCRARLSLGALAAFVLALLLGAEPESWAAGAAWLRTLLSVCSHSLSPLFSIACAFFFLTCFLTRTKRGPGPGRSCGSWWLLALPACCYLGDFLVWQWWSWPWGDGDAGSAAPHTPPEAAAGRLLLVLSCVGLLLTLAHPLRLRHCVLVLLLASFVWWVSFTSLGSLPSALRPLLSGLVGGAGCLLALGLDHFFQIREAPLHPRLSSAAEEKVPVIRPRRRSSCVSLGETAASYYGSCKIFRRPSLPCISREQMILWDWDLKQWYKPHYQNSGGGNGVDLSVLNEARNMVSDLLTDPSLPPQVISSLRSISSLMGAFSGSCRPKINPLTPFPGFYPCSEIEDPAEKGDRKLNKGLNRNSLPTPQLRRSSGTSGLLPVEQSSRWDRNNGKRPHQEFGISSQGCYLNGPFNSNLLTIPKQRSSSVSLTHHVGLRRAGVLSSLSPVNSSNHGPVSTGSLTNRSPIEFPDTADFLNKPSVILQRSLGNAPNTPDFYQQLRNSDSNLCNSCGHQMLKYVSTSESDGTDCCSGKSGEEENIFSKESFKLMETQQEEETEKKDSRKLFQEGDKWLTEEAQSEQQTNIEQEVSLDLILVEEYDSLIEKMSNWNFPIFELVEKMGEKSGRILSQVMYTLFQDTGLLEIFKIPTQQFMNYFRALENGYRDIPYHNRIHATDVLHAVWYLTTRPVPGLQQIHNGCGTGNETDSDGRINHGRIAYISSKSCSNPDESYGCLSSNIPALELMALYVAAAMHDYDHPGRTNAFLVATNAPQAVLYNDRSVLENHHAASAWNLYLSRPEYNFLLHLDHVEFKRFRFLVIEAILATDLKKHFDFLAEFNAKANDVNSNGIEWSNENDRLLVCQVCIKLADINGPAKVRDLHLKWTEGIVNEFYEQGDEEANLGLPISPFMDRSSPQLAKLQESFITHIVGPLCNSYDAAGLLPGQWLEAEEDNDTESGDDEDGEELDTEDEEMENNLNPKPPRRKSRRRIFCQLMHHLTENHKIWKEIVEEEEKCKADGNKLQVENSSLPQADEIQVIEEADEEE
T12 sequence (Q08499 1-748 isoform Q08499-11, species assumed): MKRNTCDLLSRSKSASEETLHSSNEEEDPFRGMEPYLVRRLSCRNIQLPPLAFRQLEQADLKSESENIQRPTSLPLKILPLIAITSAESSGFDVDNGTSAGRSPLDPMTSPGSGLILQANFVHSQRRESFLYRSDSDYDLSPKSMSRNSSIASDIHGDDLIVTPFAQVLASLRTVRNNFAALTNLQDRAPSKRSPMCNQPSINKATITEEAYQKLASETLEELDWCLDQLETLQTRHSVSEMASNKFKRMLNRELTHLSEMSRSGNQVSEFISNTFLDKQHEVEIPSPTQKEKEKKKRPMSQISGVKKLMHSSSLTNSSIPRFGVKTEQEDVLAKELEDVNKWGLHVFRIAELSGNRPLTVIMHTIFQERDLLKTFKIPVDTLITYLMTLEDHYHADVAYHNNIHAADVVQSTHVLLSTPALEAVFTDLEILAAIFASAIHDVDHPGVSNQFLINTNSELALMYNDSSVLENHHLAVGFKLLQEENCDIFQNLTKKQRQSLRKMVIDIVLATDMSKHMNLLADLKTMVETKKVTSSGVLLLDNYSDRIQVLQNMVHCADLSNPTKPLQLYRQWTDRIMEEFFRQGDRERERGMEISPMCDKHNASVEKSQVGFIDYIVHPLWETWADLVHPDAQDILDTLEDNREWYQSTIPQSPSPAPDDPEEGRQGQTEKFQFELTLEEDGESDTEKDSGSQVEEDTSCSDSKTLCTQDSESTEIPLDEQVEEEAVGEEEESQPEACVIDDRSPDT
T1 sequence (Q9Y233 1-779 isoform Q9Y233-1, species assumed): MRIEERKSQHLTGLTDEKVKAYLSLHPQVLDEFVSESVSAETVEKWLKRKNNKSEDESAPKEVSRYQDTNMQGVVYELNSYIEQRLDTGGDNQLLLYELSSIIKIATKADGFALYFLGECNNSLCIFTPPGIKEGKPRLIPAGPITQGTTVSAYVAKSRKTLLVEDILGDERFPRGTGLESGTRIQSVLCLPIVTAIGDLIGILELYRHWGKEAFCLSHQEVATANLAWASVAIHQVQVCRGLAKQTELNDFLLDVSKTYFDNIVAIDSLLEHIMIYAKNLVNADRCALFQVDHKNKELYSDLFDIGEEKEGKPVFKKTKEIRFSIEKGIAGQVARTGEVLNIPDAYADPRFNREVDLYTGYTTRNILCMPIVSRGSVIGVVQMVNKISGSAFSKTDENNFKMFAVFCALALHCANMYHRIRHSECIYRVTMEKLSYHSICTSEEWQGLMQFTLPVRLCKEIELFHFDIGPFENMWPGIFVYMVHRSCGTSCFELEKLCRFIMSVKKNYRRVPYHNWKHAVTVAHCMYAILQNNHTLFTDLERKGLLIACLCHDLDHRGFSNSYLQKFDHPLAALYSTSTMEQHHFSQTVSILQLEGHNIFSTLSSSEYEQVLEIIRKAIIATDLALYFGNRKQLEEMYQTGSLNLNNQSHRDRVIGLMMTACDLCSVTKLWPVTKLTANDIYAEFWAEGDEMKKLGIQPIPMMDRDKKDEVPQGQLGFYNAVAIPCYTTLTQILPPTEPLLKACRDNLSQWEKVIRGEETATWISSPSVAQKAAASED
T4 sequence (Q01064 whole entry, species assumed): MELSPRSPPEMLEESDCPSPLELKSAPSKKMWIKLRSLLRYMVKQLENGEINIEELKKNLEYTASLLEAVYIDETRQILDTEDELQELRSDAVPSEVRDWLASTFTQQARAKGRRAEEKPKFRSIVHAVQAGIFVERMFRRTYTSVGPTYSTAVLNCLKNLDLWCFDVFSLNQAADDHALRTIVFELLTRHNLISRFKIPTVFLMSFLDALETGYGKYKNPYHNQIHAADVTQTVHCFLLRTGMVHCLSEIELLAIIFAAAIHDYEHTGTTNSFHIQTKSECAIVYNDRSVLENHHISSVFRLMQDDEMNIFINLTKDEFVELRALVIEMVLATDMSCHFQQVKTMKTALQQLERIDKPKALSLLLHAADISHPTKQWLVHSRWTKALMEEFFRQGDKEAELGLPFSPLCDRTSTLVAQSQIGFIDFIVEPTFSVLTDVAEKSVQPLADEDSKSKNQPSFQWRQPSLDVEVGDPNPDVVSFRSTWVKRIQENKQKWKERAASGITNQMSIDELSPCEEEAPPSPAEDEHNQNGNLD

`CCN(CC)c1ccc(C2=NNC(=O)CC2C)cc1[N+](=O)[O-]` (centres unmarked) [DNMDP, 6-(4-(diethylamino)-3-nitrophenyl)-5-methyl-4,5-dihydropyridazin-3(2H)-one] gave an EC50 [1] of over 1 µM, an EC50 [2] of over 1 µM and an inhibition at 0.1 µM [3, 22] of 61%. It also gave an inhibition at 0.1 µM [3, 23] of 65%, an inhibition at 0.1 µM ([3]; read-out: % inhibition) of 63% and an inhibition at 0.1 µM [4, 22] of 67%. It also gave an inhibition at 0.1 µM [4, 23] of 70%, an inhibition at 0.1 µM ([4]; read-out: % inhibition) of 68% and an inhibition at 0.1 µM ([5]; read-out: % inhibition) of 16%. For the same molecule, the inhibition at 0.1 µM [5, 22] was 14%, the inhibition at 0.1 µM [5, 23] was 18% and the “% inhibition” value [6] was 5%. The “% inh. #1” value ([6]; replicate #1) was 3%, the “% inh. #2” value ([6]; replicate #2) was 7% and the inhibition at 0.1 µM ([7]; read-out: % inhibition) was -2%. It also gave an inhibition at 0.1 µM [7, 22] of -5%, an inhibition at 0.1 µM [7, 23] of 0% and an inhibition at 0.1 µM ([8]; read-out: % inhibition) of 5%. The inhibition at 0.1 µM [8, 22] was 2%, the inhibition at 0.1 µM [8, 23] was 9% and the inhibition at 0.1 µM ([9]; read-out: % inhibition) was 8%. For the same molecule, the inhibition at 0.1 µM [9, 22] was 6%, the inhibition at 0.1 µM [9, 23] was 10% and the inhibition at 0.1 µM ([10]; read-out: % inhibition) was 95%. The inhibition at 0.1 µM [10, 22] was 95%, the inhibition at 0.1 µM [10, 23] was 95% and the inhibition at 0.1 µM ([11]; read-out: % inhibition) was 97%. The inhibition at 0.1 µM [11, 22] was 98%, the inhibition at 0.1 µM [11, 23] was 97% and the inhibition at 0.1 µM ([12]; read-out: % inhibition) was 16%. The inhibition at 0.1 µM [12, 22] was 14%, the inhibition at 0.1 µM [12, 23] was 18% and the inhibition at 0.1 µM [13, 22] was 21%. The inhibition at 0.1 µM [13, 23] was 20%, the inhibition at 0.1 µM ([13]; read-out: % inhibition) was 21% and the inhibition at 0.1 µM [14, 22] was 10%. For the same molecule, the inhibition at 0.1 µM [14, 23] was 14%, the inhibition at 0.1 µM ([14]; read-out: % inhibition) was 12% and the inhibition at 0.1 µM [15, 22] was 14%. It also gave an inhibition at 0.1 µM [15, 23] of 16%, an inhibition at 0.1 µM ([15]; read-out: % inhibition) of 15% and an inhibition at 0.1 µM [16, 22] of 19%. The inhibition at 0.1 µM [16, 23] was 20%, the inhibition at 0.1 µM ([16]; read-out: % inhibition) was 20% and the inhibition at 0.1 µM [17, 22] was 16%. It also gave an inhibition at 0.1 µM [17, 23] of 16%, an inhibition at 0.1 µM ([17]; read-out: % inhibition) of 16% and an inhibition at 0.1 µM ([18]; read-out: % inhibition) of 22%. It also gave an inhibition at 0.1 µM [18, 22] of 24%, an inhibition at 0.1 µM [18, 23] of 20% and an inhibition at 0.1 µM ([19]; read-out: % inhibition) of 8%. It also gave an inhibition at 0.1 µM [19, 22] of 5%, an inhibition at 0.1 µM [19, 23] of 11% and an inhibition at 0.1 µM [20, 22] of 10%. For the same molecule, the inhibition at 0.1 µM [20, 23] was 12%, the inhibition at 0.1 µM ([20]; read-out: % inhibition) was 11% and the inhibition at 0.1 µM [21, 22] was 0%. It also gave an inhibition at 0.1 µM [21, 23] of 5% and an inhibition at 0.1 µM ([21]; read-out: % inhibition) of 2%.
